Measurements: ChEMBL document CHEMBL1201862, “PubChem BioAssay data set” (2004)
The source made the active and inactive calls. Cut-off read from the data, not from the text of the source, for most assays here: actives have a measured EC50 and inactives only a lower limit.

Tests used:
[1] = Luminescence Cell-Based Dose Confirmation HTS to Identify Activators of 5'UTR Stem-Loop Driven Alpha-Synuclein mRNA Translation in H4 Neuroglioblastoma Cells. [Related pubchem assays: 1829 (Project Summary), 1814 (Primary HTS)]; format: functional
[2] = Luminescence Cell-Based Dose Response HTS to Identify Activators of Luciferase Translation or Activity in H4 […] Cells. [Related pubchem assays: 1829 (Project Summary), 1814 (Primary HTS)]; format: functional
H4 = experiment: Luminescence Cell-Based Dose Response HTS to Identify Activators of 5'UTR Stem-Loop Driven Prion Protein mRNA Translation in H4 Neuroglioblastoma Cells. [Related pubchem assays: 1829 (Project Summary), 1814 (Primary HTS)]; format: functional; conditions: Homo sapiens
[3] = target: T1, Rac GTPase-activating protein 1 (Homo sapiens, UniProt Q9H0H5); experiment: blockers of MgcRacGAP-driven Rac1 GTP hydrolysis – biochemical, ADP Hunter fluorescence, primary and confirmatory, confirmation (AID 624330); format: functional
T1 sequence (Q9H0H5 whole entry): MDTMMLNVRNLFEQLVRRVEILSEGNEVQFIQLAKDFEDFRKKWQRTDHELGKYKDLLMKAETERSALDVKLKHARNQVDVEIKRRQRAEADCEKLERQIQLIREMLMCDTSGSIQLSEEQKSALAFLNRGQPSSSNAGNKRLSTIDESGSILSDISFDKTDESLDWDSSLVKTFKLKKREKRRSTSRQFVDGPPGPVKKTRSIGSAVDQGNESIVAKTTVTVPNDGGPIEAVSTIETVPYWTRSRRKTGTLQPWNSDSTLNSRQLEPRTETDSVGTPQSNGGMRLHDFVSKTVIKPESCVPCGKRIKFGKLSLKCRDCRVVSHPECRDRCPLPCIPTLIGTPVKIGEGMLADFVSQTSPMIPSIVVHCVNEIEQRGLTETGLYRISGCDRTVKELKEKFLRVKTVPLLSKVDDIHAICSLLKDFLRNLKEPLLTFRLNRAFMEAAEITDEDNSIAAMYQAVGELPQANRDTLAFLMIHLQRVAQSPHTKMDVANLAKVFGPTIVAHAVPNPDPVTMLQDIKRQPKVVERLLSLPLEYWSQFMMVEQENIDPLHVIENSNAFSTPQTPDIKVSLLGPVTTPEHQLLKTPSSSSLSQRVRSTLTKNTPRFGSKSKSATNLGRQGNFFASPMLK

[4] = luciferase reporter signal suppression in cells – H4 neuroglioma cells, luminescence, dose response (AID 1990); format: functional, cell-based
[5] = Luminescence Cell-Based Dose Response HTS to Identify Inhibitors of 5'UTR Stem-Loop Driven Prion Protein mRNA Translation in H4 Neuroglioblastoma Cells. [Related pubchem assays: 1827 (Project Summary), 1813 (Primary HTS)]; format: functional
[6] = alpha-synuclein stem-loop luciferase translation blockers – H4 neuroglioma cells, luminescence, confirmation (AID 1988); format: functional, cell-based
[7] = Trypanosoma cruzi growth suppression in host cells – NIH3T3 host cells, beta-gal luminescence, confirmation (AID 2044); format: functional, cell-based;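 note: intracellular parasites grown in NIH/3T3 mouse fibroblasts as host cells; luminescent beta-galactosidase reporter signal from transgenic T. cruzi replicating inside host cells; inhibitors lower the luminescence signal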
[8] = NIH3T3 cell viability loss – ATP luminescence, mouse fibroblasts, counter-screen, dose response (AID 2010); format: functional, cell-based;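 note: cells exposed to compound for about 90 hours before reading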
H9c2 = experiment: cells; format: functional, cell-based; conditions: Rattus norvegicus, H9c2, Myocardium
[9] = target: T2, Corticotropin-releasing factor receptor 2/Corticotropin-releasing factor-binding protein (Homo sapiens, UniProt P24387+Q13324); experiment: Dose Response confirmation of uHTS hits for small molecule antagonists of the CRF-binding protein and CRF-R2 receptor complex.; format: functional; conditions: read-out: IC50_Mean
T2 sequence (Q13324 whole entry): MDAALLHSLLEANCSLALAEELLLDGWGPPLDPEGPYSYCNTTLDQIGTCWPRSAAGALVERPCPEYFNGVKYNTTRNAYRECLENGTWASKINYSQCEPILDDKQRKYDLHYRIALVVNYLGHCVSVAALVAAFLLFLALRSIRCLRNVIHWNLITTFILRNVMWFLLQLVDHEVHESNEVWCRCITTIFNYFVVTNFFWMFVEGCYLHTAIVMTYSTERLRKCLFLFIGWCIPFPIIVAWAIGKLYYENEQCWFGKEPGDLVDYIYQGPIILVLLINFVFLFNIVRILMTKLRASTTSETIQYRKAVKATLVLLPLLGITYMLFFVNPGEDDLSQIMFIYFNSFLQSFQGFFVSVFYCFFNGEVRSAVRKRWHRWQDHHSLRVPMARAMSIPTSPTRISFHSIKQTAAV
T2 sequence (P24387 whole entry): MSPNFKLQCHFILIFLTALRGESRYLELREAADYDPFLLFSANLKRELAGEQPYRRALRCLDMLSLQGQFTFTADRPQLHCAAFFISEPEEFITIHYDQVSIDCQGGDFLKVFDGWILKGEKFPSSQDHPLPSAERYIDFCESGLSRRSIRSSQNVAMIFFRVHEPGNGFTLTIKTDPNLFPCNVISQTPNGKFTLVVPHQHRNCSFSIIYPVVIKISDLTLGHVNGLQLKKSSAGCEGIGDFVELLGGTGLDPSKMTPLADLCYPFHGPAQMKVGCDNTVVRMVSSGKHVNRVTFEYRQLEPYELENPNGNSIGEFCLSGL

[10] = target: T2, Corticotropin-releasing factor receptor 2/Corticotropin-releasing factor-binding protein; experiment: activators of CRF receptor 2 with binding protein – uHTS hits, confirmation (AID 602473); format: functional; conditions: read-out: EC50_Mean
[11] = target: T3, Replicative DNA helicase DnaB (Mycobacterium tuberculosis, UniProt P9WMR3); experiment: DnaB intein splicing inhibitors, dose response, biochemical, cell-free fluorescence (AID 449749); format: functional
T3 sequence (P9WMR3 whole entry): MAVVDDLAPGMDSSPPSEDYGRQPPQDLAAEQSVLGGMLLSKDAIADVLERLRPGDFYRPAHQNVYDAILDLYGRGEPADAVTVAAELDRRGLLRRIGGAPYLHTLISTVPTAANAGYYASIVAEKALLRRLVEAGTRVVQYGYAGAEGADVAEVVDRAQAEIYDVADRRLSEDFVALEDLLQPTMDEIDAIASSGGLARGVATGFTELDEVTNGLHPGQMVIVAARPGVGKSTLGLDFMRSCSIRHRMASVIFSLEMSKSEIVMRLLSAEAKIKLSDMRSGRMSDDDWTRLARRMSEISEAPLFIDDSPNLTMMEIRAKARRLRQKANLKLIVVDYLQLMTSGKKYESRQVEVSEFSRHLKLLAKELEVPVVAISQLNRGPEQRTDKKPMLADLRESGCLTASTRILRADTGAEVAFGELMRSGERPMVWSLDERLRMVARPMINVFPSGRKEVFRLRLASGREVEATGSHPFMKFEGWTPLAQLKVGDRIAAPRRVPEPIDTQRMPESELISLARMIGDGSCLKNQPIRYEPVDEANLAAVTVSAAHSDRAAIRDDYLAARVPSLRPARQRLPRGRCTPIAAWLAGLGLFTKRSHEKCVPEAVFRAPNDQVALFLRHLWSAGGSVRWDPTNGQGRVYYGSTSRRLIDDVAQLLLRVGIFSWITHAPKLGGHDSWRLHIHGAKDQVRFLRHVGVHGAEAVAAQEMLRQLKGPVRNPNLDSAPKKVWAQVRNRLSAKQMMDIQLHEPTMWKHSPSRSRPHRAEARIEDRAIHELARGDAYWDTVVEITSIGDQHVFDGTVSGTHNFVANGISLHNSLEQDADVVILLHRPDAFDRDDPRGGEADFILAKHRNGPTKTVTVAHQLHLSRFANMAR

Protein RecA = target: T4, Protein RecA (Mycobacterium tuberculosis, UniProt P9WHJ3); experiment: Fluorescence Cell-Free Homogeneous Dose Retest to Identify Inhibitors of RecA-Intein Splicing Activity. [Related pubchem assays (depositor defined):AID2097, AID2223, AID489010, AID492950]; format: functional
T4 sequence (P9WHJ3 whole entry): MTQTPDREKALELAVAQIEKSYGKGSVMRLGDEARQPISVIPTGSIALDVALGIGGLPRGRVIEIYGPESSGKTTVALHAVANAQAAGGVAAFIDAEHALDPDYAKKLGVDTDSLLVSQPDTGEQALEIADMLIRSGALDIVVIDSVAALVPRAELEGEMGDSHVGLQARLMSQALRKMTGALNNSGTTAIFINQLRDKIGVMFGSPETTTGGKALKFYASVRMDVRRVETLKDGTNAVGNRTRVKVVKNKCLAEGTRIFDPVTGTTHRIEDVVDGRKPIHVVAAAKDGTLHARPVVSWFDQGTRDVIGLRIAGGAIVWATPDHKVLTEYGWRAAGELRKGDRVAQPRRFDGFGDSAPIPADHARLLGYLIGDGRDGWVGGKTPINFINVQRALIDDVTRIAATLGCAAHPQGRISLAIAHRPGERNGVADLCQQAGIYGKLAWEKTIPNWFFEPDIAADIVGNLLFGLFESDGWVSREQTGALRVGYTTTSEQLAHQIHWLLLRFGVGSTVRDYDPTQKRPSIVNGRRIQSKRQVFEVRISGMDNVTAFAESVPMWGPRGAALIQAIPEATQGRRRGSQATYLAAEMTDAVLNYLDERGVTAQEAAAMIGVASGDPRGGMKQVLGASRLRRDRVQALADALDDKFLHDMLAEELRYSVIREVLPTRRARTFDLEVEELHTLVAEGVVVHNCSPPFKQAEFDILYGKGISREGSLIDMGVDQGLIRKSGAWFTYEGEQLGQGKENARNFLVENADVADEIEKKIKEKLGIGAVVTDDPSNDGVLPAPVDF

## O=C(c1cn(-c2ccc(Cl)c(Cl)c2)nn1)C1CC1
[1]
  EC50: 7.57 µM (active)
[2]
  EC50: 10.6 µM (active)
H4
  EC50: > 60 µM (not active)

## CC(=O)c1c(C)c(C)c2n1CCn1c(C)ccc1-2
[3]
  IC50: 29 µM (active)

## CCn1ncc(C(=O)Nc2cccc(Cl)c2)c1C
[1]
  EC50: 0.244 µM (active)
[2]
  EC50: 5.61 µM (active)
H4
  EC50: 109 µM (active)

## Cc1ccc(NC(=O)CN(C)CC(=O)Nc2ccc(F)c(F)c2F)c(Cl)c1
[4]
  EC50: > 120 µM (not active)
[5]
  EC50: > 120 µM (not active)
[6]
  EC50: > 120 µM (not active)

## COC(=O)c1c(NC(=O)CCNCc2ccco2)sc2c1CCC2
[3]
  IC50: 138 µM (active)

## COc1ccc(-c2nn(-c3ccccc3)cc2/C=C/C(=O)NCCCn2ccnc2)cc1OC
[4]
  EC50: > 120 µM (not active)
[5]
  EC50: > 120 µM (not active)
[6]
  EC50: > 60 µM (not active)

## CCOC(=O)c1cnc2c(OC)cccc2c1N1CCN(c2ccccc2OC)CC1
[4]
  EC50: 11.4 µM (active)
[5]
  EC50: > 120 µM (not active)
[6]
  EC50: 8.6 µM (active)

## Cc1nc2ccc(NC(=O)CCC3CCCC3)cc2s1
[1]
  EC50: 10.7 µM (active)
[2]
  EC50: 28.8 µM (active)
H4
  EC50: 15.2 µM (active)

## CCN1C(=O)C(=C2C=C(C)OC(C)=C2)C(=O)N(CC)C1=S
[1]
  EC50: > 120 µM (not active)
[2]
  EC50: > 120 µM (not active)
H4
  EC50: > 120 µM (not active)

## C=CCNC(=O)CN1CCN(C(c2ccccc2)c2ccccc2)CC1
[3]
  IC50: 168 µM (active)

## Cn1c(C(=O)NC2CCCCC2)cc2c(=O)n3ccccc3nc21
[1]
  EC50: > 120 µM (not active)
[2]
  EC50: 8.85 µM (active)
H4
  EC50: 29.3 µM (active)

## CCCCCSc1nc(N2CCOCC2)c2c(c1C#N)CC(C)(C)OC2
[4]
  EC50: > 120 µM (not active)
[5]
  EC50: 19.8 µM (active)
[6]
  EC50: > 120 µM (not active)

## Nc1n[nH]c(N)c1N=Nc1ccc2c(c1)OCO2
[7]
  EC50: > 60 µM (not active)
[8]
  EC50: > 60 µM (not active)
[3]
  IC50: 30.1 µM (active)

## Cn1c(SCc2ccccc2F)nnc1-c1cnccn1
[1]
  EC50: 0.166 µM (active)
[2]
  EC50: 35.2 µM (active)
H4
  EC50: 4.22 µM (active)

## Cc1c(Cl)cccc1N=C(S)N(Cc1cccs1)C1CCCC1
[4]
  EC50: > 120 µM (not active)
[5]
  EC50: > 120 µM (not active)
[6]
  EC50: > 120 µM (not active)

## COc1ccc(NC(=O)c2ccc(-c3csc(C)n3)cc2)cc1
[1]
  EC50: 3.97 µM (active)
[2]
  EC50: 1.24 µM (active)
H4
  EC50: > 120 µM (not active)

## COc1ccc(C2=NCN(c3ccc(C)cc3)C(S)=N2)cc1
[1]
  EC50: 6.32 µM (active)
[2]
  EC50: > 120 µM (not active)
H4
  EC50: 7.4 µM (active)

## O=[N+]([O-])c1ccc2c(c1)C(O)n1nc(-c3ccccc3)nc1S2 (centres undefined)
[1]
  EC50: > 120 µM (not active)
[2]
  EC50: > 120 µM (not active)
H4
  EC50: > 120 µM (not active)

## N#C/C=C1\Sc2ccccc2C(=O)N1CC(=O)N1CCN(S(=O)(=O)c2ccccc2)CC1
[1]
  EC50: 13.2 µM (active)
[2]
  EC50: 16 µM (active)
H4
  EC50: 46.7 µM (active)

## COc1cc(/C=C/c2nnc3c4ccccc4ncn23)cc(OC)c1OC
[1]
  EC50: 8.84 µM (active)
[2]
  EC50: 29.1 µM (active)
H4
  EC50: > 120 µM (not active)
H9c2
  IC50: > 79 µM (inactive)

## CCOc1cc(C=NNC(=O)c2cccc(S(=O)(=O)N3CCCC3)c2)ccc1O
[3]
  IC50: 32.3 µM (active)

## CC(C)NC(=O)CN1C(=O)CSc2ccc(S(=O)(=O)N3CCCC3)cc21
[9]
  IC50: > 47.1 µM (inactive)
[10]
  EC50: > 53 µM (inactive)

## COc1nc(N/N=C/c2ccc(-c3ccccc3[N+](=O)[O-])o2)nc(N2CCOCC2)n1
[1]
  EC50: 12.4 µM (active)
[2]
  EC50: 22.5 µM (active)
H4
  EC50: 24.7 µM (active)
[11]
  AC50: 16 µM (active)
Protein RecA
  EC50: 14.4 µM (active)

## CCn1c(C)nc2cc(C(=O)N/N=C/c3ccc(O)cc3)ccc21
[3]
  IC50: 66.7 µM (active)
